The nature of data set [1]: Acute drug toxicity: deaths by day 7 after intracranial drug injection. It counts as in vivo, mice. As to conditions: mouse, in vivo, 0.2 mg/kg; read-out: % of Mice That Died. The procedure: (§1) The use of vinblastine (VBL) and vincristine (VC) alone and in combination with a protein carrier on the growth of experimental murine tumors grown intracranially was investigated. Halothane-anesthesized C3H mice 12-16 weeks in age were injected intracranially (i.c.) into the right frontal lobe with 10 µl total volume of Hank's balanced salt solution containing 5 X 10⁴ KHT fibrosarcoma cells through a burr hole made in the exposed cranium with a compressed air-driven drill. Following injection, the cranium was sealed with bone wax, and the overlying skin was sutured.
(§2) The test solution with and without matrix and the saline control were delivered intracranially (i.c.) in an injection volume of 10 µl through the same burr hole used for tumor cell inoculation. All mice were observed daily.
(§3) The acute drug toxicity level was determined by the percentage of animal survival on day 7 following drug injection. A comparison of the acute toxicity (deaths) of mice treated i.c. with matrix-associated VBL to aqueous VBL (10 µl) injection volume to the right frontal lobe is shown in Table 1 below. […]

In data set [2] the test system is C3H mice. Described as above. It counts as in vivo. The settings on record: 0.2 mg/kg vinblastine i.c., 10 µl, right frontal lobe, 5 days post tumor implantation; deaths by day 7 following drug injection; epinephrine 0.1 mg/kg; matrix 1:1 bovine collagen 36 mg/ml. On the procedure: as §1, §2, §3

Turning to `CC[C@]1(O)C[C@@H]2CN(CCc3c([nH]c4ccccc34)[C@@](C(=O)OC)(c3cc4c(cc3OC)N(C)[C@H]3[C@@](O)(C(=O)OC)[C@H](OC(C)=O)[C@]5(CC)C=CCN6CC[C@]43[C@@H]65)C2)C1` [Vinblastine, vinblastine], the mortality at 168 h in data set [1] stood at 26%. Also, the “Number of Mice That Died” value in data set [2] was determined as 7.

The values are drawn from patent EP0328389A2, “Compostions for treating intracranial tumors” (MATRIX PHARMACEUTICAL INC., priority 1988, dated 1989).
